Assay: Urethane stability study (hydroxyl value after heat/reflux and pH variation)
Assay type: physicochemical
Conditions: before treatment; A.O.C.S. hydroxyl value method
Procedure: (§1) The following stability study was conducted to determine the structural stability of dimeric urethane compounds according to the present invention compared to mono- and diesters under conditions of pH and thermal variation. Because the decomposition products of the mono- and diesters are alcohol and acid, the degree of decomposition may be accurately determined by measuring the acid value. The measurable decomposition product of the urethane compound is alcohol, which is accurately measured by determining the hydroxyl value.
IV. Procedure for Urethane Stability
The following steps were performed on each urethane sample:
(1) Run hydroxyl value test.
(2) Follow steps 2-8 for mono- and diester (above).
(3) Run hydroxyl value test on solution in beaker A.
(4) Perform step 10, from above.
(5) Run hydroxyl value test on solution in Beaker B and Beaker C.
Under conditions of this study, that is,
“A”: Product in alcoholic/water solution, heat
“B”: Product in alcoholic/water solution, heat, pH=2.5-3.5
“C”: Product in alcoholic/water solution, heat, pH=13-14

Row | HYDROXYL V INITIAL | Compound
1 | 7.3 mg KOH/g | Isocetyl alcohol dimer with IPDI [Monoderm I-16]
2 | 5.3 mg KOH/g | Isostearyl alcohol dimer with IPDI [Monoderm I-18]
3 | 16.1 mg KOH/g | Octyl dodecanol dimer with IPDI [Monoderm I-20]

Row | Compound | HYDROXYL V INITIAL
4 | CCCCC(CC)COC(=O)NCC1(C)CC(NC(=O)OCC(CC)CCCC)CC(C)(C)C1 (stereo not drawn) [Monoderm I-8, 2-ethyl hexanol dimer with IPDI] | 10.3 mg KOH/g

Assay: Mono- and diester stability study (acid value after heat/reflux and pH variation)
Assay type: physicochemical
Conditions: before treatment; A.O.C.S. T.M. #Cd 3a-63
Procedure: as §1
III. Procedure for Determining Mono- or Diester Stability
The following steps were performed on each ester sample:
(2) Into three ground glass Erlenmeyer flasks, weigh a 20 g sample of the ester.
(3) Into each flask, pipette 50 ml of a neutralized (to phenolpthalein end point) Solution of 70% Isopropanol in water. Boiling stones are added.
(4) Connect flask A to a 4-5 ft. Reflux condenser and heat so that it refluxes 1 ft. High (to approximately 80-90° C.). After connecting flasks A, B and C, proceed to step (7).
(5) Add 10% Aq. Hcl solution to adjust pH of solution in flask B to pH=2.5-3.5. See step (4).
(6) Add 20% Aq. KOH Solution to adjust pH of solution in Flask C to pH=13-14. See step (4).
(8) For each flash, A, B and C, disconnect condenser. Pour Alcoholic solution into wide diameter beaker (A, B and C). Add spin bar. […]

Row | ACID V INITIAL | Compound
5 | 0.26 mg KOH/g | CC(C)OC(=O)CCCCC(=O)OC(C)C [DIA, Diisopropyl adipate]
6 | 0.32 mg KOH/g | Diisopropyl dilinoleate [DID]

— patent US6583106B2, “Monohydric alcohol derived urethanes and their use in cosmetic formulations” (Alzo International, Inc., priority 1997, dated 2003)
